{"source": "patent US20220411525A1", "about": "“BCMA AS A TARGET FOR T CELL REDIRECTING ANTIBODIES IN B CELL LYMPHOMAS” (Janssen Pharmaceutica NV, priority 2021, published 2022)", "key": {"[1]": {"system": "primary CLL cells", "assay": "Cytotoxicity assay, primary CLL cells co-cultured with healthy donor T cells", "assay_type": "cell-based, human", "details": "for average lysis of CLL cells: 48 h; for average lysis of CLL cells / average cell death of CLL cells: 10:1 E:T, per T cell donor; for average cell death of CLL cells: 96h", "method": "Since primary CLL samples express BCMA at even lower levels compared to JeKo-1 cell lines, the present inventors explored whether this expression level was still high enough to induce effective lysis of CLL cells. To assess this HD T cells were co-cultured for 48-96 h with primary CLL cells in the presence of 100 ng/mL of Teclistamab with or without 100 nM γ-secretase inhibitor.\nFIGS. 5A-5C illustrate how healthy donor T cells kill primary CLL cells in presence of BCMAxCD3 DuoBody, which is largely dependent on CD8^+ T cells. Measurement of cytotoxicity after PBMCs of healthy donors were left unstimulated or stimulated with 100 ng/mL BCMAxCD3 DuoBody®, in the absence (−) or presence (+) of 100 nM γ-secretase inhibitor. PBMCs were T cells were co-cultured with primary CLL in a 10:1 E:T ratio for (FIG. 5A) 48 h or (FIG. 5B) 96 h. […] (n=8) The P value was calculated by Wilcoxon test (FIG. 5A), paired t test (FIG. 5B) or repeated measures one-way ANOVA (FIG. 5C). Data are presented as mean±SD. *P<0.05; **P<0.01; ***P<0.001.\nCytotoxicity assay. Cell lines or primary CLL samples were labelled with Cell Trace Violet (CTV, Thermo Fisher Scientific) or carboxyfluorescein diacetate succinimidyl ester (CFSE, ThermoFisher Scientific) according to manufacturer's instructions and co-cultured with healthy donor PBMCs or CLL derived (autologous) T cells in different effector-target (E:T) ratios. Where indicated prior to co-culture CD4 and CD8 T cells were isolated using MACS beads (Miltenyi), according to manufacturer's instructions. Co-cultures were in the presence of 100 ng/mL BCMAxCD3, BCMAxnull or nullxCD3. 100nM γ-secretase inhibitor (Ly411575) was added where indicated. Viability of the target cells was assessed using TO-PRO-3 (Invitrogen) and MitoTracker Orange (Invitrogen) using Flow Cytometry. Specific lysis of target cells was calculated as (% target cell death in treated sample—% cell death target cells in medium control)/(100—% cell death target cells in medium control)*100%. Samples were excluded when cell death in medium controls exceeded 50%."}, "[2]": {"system": "CLL derived T cells", "assay": "Activation and degranulation of CLL derived T cells in CLL PBMCs", "assay_type": "cell-based, human", "details": "96 h", "method": "(§1) It was also assessed whether Teclistamab would induce activation and cytotoxicity of CLL derived T cells. To assess activation and degranulation, full PBMCs of CLL patients were treated with 100 ng/mL Teclistamab or control BsAbs for 96 h with or without presence of γ-secretase inhibition. […] For FIGS. 6A-6, CLL PBMCs were stimulated with 100 ng/mL BCMAxCD3, BCMAxnull, nullxCD3 or anti-CD3/CD28 antibodies. Flow cytometry analysis of (FIG. 6A) CD25 and (FIG. 6B) CD107a were performed after 4 days (n=3-5). For FIG. 6C, T cells from CLL patients were isolated and co-cultured in a 5:1 E:T ratio with their autologous CLL for 96 h in the presence or absence of 100 ng/mL BCMAxCD3 DuoBody and were left untreated (−) or treated with 100 nM γ-secretase inhibitor (+). (n=6) The P value was calculated ordinary one-way ANOVA (FIGS. 6A-6B) or paired t test (FIG. 6C). Data are presented as mean±SD. *P<0.05; **P<0.01; ***P<0.001; ****P<0.0001.\n(§2) Activation, cytokine production and degranulation. PBMCs from HD or CLL patients were incubated in the presence of 100 ng/mL BCMAxCD3, BCMAxnull or nullxCD3 or stimulated with CD3 (clone 1XE) and CD28 (clone 15E8) antibodies for 2 days. Where indicated HD PBMCs were co-cultured in a 1:1 E:T ratio with RPMI-8226, JeKo-1, CII or BCWM1. 100 nM γ-secretase inhibitor (Ly411575) was added where indicated. […]"}, "[3]": {"system": "B cell malignancy cell lines (RPMI-8226, JeKo-1, BCWM.1, CII)", "assay": "Cytotoxicity assay, cell lines co-cultured with healthy donor PBMCs", "assay_type": "cell-based", "method": "(§3) Since the different B cell malignancy cell lines express BCMA to different extents, it was explored whether co-culture of these cell lines with the BCMAxCD3 BsAb Teclistamab in presence of HD PBMCs would lead to activation of T cells. To assess this, 4 cell lines were selected based on previously determined BCMA levels: RPMI-8226 (MM, positive control; high BCMA), BCWM.1 (WM, high BCMA), CII (CLL, intermediate BCMA) and JeKo-1 (MCL, low BCMA). Cell lines and age-matched HD PBMCs were cultured in presence of 100 ng/mL Teclistamab or the control BsAbs (BCMAxnull or nullxCD3) with or without 100 nM γ-secretase inhibitor. As a positive control, anti-CD3/CD28 antibodies were added to the co-cultures to induce TCR stimulation.\n(§4) FIGS. 4A-4G provide the results of the assessment, which are that BCMAxCD3 DuoBody® induces activation, degranulation, cytokine secretion and cytotoxicity by T cells in the presence of B cell malignancy cell lines. PBMCs of healthy donors were left unstimulated or stimulated with 100 ng/mL BCMAxCD3 DuoBody®, BCMAxnull, nullxCD3 or anti-CD3/CD28 antibodies. Cells were left untreated (−) or treated with 100nM γ-secretase inhibitor (+). T cells were co-cultured with cell lines RPMI-8226 (multiple myeloma), JeKo-1 (mantle cell lymphoma), BCWM.1 (Waldenstrom's macroglobulinemia) or CII (chronic lymphocytic leukemia) in a 1:1 E:T ratio. After 48 hours activation by CD25 (FIG. 4A), degranulation (FIG. 4B), secretion of IFNy (FIG. 4D), IL-2 (FIG. 4E), TNFα (FIG. 4F), and cytotoxicity (FIG. 4G) were measured by flow cytometry (n=3-14). 4 days after incubation T cell proliferation was assessed by FACS (FIG. 4C) (n=3-9).\n(§5) Cytotoxicity assay. […] Viability of the target cells was assessed using TO-PRO-3 (Invitrogen) and MitoTracker Orange (Invitrogen) using Flow Cytometry. Specific lysis of target cells was calculated as (% target cell death in treated sample—% cell death target cells in medium control)/(100—% cell death target cells in medium control)*100%. […]"}, "[4]": {"system": "T cells of healthy donor PBMCs", "assay": "Activation, degranulation and cytokine production of healthy donor T cells co-cultured with B cell malignancy cell lines", "assay_type": "cell-based, human", "method": "as §3, §4, §2"}, "[5]": {"system": "T cells of healthy donor PBMCs", "assay": "T cell proliferation of healthy donor PBMCs co-cultured with cell lines", "assay_type": "cell-based, human", "details": "co-culture of HD T cells with B cell malignancy cell lines, 4 days", "method": "as §4\nT cell proliferation. PBMCs from HD patients were labelled with CTV and cultured alone or in 1:1 E:T ratio with RPMI-8226, JeKo-1, CII or BCWM1. PBMCs were incubated in the presence of 100 ng/mL BCMAxCD3, BCMAxnull or nullxCD3 or stimulated with CD3 (clone 1XE) and CD28 (clone 15E8) antibodies. 100 nM γ-secretase inhibitor (Ly411575) was added where indicated. After 4 days proliferation was measured by flow cytometry as described above."}, "[6]": {"system": "autologous CLL cells", "assay": "Cytotoxicity assay, CLL derived T cells co-cultured with autologous CLL cells", "assay_type": "cell-based, human", "details": "96 h, 5:1 E:T", "method": "as §1, §5"}, "[7]": {"details": "100 ng/mL, no γ-secretase inhibitor"}, "[8]": {"details": "100 ng/mL, with 100 nM γ-secretase inhibitor"}, "[9]": {"details": "100 ng/mL plus 100 nM γ-secretase inhibitor"}}, "note": "Several values for one entry are separate records, joined by “and”; a condition that tells them apart may be missing. Equal values may be shown once.", "data": [{"substance": "Teclistamab: BCMAxCD3 bispecific antibody developed with Genmab DuoBody technology, provided by Janssen Pharmaceuticals", "values": [{"measurement": "average lysis of CLL cells", "setting": "[1]; [7]", "result": "12.9% and 16.4%"}, {"measurement": "average lysis of CLL cells", "setting": "[1]; [8]", "result": "14.9% and 21.6%"}, {"measurement": "killing by HD CD4+ T cells", "setting": "[1]; 100 ng/mL, 96 h, 5:1 E:T, CD4+ T cells only", "result": "not able to induce killing"}, {"measurement": "lysis by HD CD8+ T cells", "setting": "[1]; 100 ng/mL, 96 h, 5:1 E:T, CD8+ T cells", "result": "up to 60%"}, {"measurement": "average cell death of CLL cells", "setting": "[1]; [7]", "result": "15.8% and 20%"}, {"measurement": "average cell death of CLL cells", "setting": "[1]; [8]", "result": "25,8% and 27.4%"}, {"measurement": "lysis of CLL cells by healthy donor T cells", "setting": "[1]; summary statement, in presence of teclistamab", "result": "up to 40%"}, {"measurement": "CD25 activation in T cells of CLL patients upon addition of γ-secretase inhibitor", "setting": "[2]; 100 ng/mL plus γ-secretase inhibitor", "result": "enhanced"}, {"measurement": "CD25 activation in CD4+ and CD8+ T cells of CLL patients", "setting": "[2]; 100 ng/mL, CLL PBMCs", "result": "trend towards increased CD25 activation"}, {"measurement": "cytotoxicity upon addition of γ-secretase inhibitor", "setting": "[3]; [9]", "result": "did not improve"}, {"measurement": "lysis of JeKo-1 compared to BCWM.1 or CII cell lines", "setting": "[3]; 100 ng/mL, JeKo-1 (low BCMA)", "result": "more efficiently lysed"}, {"measurement": "cell death of target cells", "setting": "[3]; 100 ng/mL, co-culture with HD T cells, 1:1 E:T, 48 hours", "result": "induced cell death of target cells"}, {"measurement": "T cell activation and proliferation upon increasing BCMA levels by γ-secretase inhibition", "setting": "[4]; [9]", "result": "not further enhanced"}, {"measurement": "activation marker CD25 on CD4+ and CD8+ T cells", "setting": "[4]; 100 ng/mL, 2 days co-culture with cell lines, 1:1 E:T", "result": "upregulation of the activation marker CD25"}, {"measurement": "CD25 on T cells, PBMCs cultured without a target cell", "setting": "[4]; 100 ng/mL, no target cell", "result": "did not lead to upregulation of CD25"}, {"measurement": "T cell proliferation", "setting": "[5]", "result": "resulted in T cell activation, proliferation and cytotoxicity"}, {"measurement": "lysis of autologous CLL cells upon addition of γ-secretase inhibition", "setting": "[6]; [9]", "result": "slightly increased"}, {"measurement": "mean lysis of autologous CLL cells", "setting": "[6]; [7]", "result": 40, "unit": "%"}]}]}
